Test results reported in PMC7614683, “A small molecule PI3Kα activator for cardioprotection and neuroregeneration” (Nature, 2023).
Read-outs that look alike come from different tables or passages of the source.

Key:
Experiment in all cases: SelectScreen Z-LYTE kinase activity assay (SI Table 6)
Type in all cases: biochemical
[1] = biological target: T1, protein kinases of the Z-LYTE panel (Homo sapiens, UniProt O15530); conditions: PDK1, 1000 nM, [ATP] 100 μM
T1 sequence (O15530 1-556): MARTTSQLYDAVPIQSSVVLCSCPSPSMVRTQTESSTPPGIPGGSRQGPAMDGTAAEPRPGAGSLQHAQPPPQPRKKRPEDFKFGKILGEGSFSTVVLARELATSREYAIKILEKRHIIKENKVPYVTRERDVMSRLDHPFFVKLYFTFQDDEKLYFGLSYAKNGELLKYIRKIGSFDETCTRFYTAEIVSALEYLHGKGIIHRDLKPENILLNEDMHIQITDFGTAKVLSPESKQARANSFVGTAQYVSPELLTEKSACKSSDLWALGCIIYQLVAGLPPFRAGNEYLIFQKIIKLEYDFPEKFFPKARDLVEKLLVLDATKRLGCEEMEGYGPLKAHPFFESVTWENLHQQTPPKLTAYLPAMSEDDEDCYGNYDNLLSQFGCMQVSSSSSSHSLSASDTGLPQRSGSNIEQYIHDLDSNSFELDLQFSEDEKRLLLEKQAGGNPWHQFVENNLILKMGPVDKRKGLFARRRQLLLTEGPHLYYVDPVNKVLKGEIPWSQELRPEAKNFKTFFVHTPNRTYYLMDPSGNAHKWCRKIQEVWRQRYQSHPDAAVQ
Summary of the method: (§1)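 A single compound concentration of 1 μM was profiled in the vendor's Adapta, Lantha and Z-LYTE kinase assays. In gel-based follow-ups with 200 μM compound, phosphorylation was resolved on Phos-tag SDS-PAGE and quantified by Coomassie. The ATM run used 1 mM ATP with GST-p53 for 30 min, and the mTORC1 run used 250 μM ATP with 4E-BP1 for 3 h.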

[2] = biological target: protein kinases of the Z-LYTE panel (Homo sapiens, UniProt P12931)
Summary of the method: as §1

[3] = biological target: protein kinases of the Z-LYTE panel (Homo sapiens, UniProt P14616)
Summary of the method: as §1

[4] = biological target: protein kinases of the Z-LYTE panel (Homo sapiens, UniProt P17612)
Summary of the method: as §1

[5] = biological target: protein kinases of the Z-LYTE panel (Homo sapiens, UniProt P49137)
Summary of the method: as §1

[6] = biological target: T2, protein kinases of the Z-LYTE panel (Homo sapiens, UniProt P51955)
T2 sequence (P51955 1-445): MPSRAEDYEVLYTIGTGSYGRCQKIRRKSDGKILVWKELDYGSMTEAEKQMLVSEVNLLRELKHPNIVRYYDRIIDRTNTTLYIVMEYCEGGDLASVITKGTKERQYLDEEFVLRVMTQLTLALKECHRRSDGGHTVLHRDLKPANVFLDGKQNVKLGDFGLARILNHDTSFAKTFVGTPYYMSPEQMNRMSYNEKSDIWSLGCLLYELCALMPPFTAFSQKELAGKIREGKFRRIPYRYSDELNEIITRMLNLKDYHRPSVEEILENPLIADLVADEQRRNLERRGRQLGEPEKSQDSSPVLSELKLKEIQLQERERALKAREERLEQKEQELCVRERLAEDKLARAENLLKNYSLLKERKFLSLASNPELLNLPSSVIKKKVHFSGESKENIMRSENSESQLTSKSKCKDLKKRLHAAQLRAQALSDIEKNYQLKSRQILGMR
Summary of the method: as §1

[7] = biological target: protein kinases of the Z-LYTE panel (Homo sapiens, UniProt Q16620)
Summary of the method: as §1

[8] = biological target: protein kinases of the Z-LYTE panel (Homo sapiens, UniProt Q9HCP0)
Summary of the method: as §1

protein kinases of the Z-LYTE panel (Homo sapiens, UniProt P12931), sequence (P12931 whole entry): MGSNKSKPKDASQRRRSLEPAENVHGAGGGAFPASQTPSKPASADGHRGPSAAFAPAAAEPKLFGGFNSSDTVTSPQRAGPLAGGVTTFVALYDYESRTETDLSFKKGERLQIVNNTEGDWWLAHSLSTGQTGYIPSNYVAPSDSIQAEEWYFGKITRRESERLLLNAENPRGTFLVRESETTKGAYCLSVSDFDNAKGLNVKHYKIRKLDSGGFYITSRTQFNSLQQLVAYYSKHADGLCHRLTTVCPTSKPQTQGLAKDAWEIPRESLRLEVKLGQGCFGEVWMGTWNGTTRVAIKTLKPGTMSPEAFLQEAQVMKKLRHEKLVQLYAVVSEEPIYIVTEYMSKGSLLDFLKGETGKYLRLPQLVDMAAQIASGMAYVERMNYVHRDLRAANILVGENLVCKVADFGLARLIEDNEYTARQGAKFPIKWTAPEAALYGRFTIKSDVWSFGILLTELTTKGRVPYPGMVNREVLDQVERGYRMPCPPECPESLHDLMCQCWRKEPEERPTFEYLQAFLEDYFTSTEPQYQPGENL
protein kinases of the Z-LYTE panel (Homo sapiens, UniProt Q16620), sequence (Q16620 32-822): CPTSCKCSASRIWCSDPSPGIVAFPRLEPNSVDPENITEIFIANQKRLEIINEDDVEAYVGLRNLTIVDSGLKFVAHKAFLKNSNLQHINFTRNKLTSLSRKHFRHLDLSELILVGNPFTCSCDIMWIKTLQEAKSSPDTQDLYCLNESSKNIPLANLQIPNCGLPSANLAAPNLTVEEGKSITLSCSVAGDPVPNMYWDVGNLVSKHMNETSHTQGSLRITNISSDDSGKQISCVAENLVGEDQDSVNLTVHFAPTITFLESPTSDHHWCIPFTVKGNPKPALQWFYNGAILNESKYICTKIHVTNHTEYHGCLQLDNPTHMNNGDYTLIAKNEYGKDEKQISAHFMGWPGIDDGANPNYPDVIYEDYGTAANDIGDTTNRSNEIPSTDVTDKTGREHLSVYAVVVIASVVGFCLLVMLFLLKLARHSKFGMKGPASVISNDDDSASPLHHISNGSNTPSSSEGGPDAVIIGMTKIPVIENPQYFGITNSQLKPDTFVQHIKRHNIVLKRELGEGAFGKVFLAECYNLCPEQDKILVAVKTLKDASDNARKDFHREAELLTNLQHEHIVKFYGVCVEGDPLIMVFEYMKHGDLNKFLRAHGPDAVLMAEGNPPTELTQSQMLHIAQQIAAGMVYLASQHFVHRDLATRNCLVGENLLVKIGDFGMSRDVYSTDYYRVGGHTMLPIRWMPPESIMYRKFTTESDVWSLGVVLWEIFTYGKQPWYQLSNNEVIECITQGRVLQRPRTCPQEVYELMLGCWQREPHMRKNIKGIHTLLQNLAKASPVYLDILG
protein kinases of the Z-LYTE panel (Homo sapiens, UniProt P49137), sequence (P49137 whole entry): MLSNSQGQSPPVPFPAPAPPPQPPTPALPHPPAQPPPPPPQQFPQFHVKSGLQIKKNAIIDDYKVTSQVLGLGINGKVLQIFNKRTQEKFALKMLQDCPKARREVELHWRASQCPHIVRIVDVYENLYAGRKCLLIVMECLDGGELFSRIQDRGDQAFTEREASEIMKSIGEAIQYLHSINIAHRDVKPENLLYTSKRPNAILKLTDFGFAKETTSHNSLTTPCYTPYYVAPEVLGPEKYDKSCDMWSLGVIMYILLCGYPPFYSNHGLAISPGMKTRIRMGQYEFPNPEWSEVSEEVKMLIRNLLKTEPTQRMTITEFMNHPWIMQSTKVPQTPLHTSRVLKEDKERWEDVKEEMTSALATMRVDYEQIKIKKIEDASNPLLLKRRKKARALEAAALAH
protein kinases of the Z-LYTE panel (Homo sapiens, UniProt Q9HCP0), sequence (Q9HCP0 whole entry): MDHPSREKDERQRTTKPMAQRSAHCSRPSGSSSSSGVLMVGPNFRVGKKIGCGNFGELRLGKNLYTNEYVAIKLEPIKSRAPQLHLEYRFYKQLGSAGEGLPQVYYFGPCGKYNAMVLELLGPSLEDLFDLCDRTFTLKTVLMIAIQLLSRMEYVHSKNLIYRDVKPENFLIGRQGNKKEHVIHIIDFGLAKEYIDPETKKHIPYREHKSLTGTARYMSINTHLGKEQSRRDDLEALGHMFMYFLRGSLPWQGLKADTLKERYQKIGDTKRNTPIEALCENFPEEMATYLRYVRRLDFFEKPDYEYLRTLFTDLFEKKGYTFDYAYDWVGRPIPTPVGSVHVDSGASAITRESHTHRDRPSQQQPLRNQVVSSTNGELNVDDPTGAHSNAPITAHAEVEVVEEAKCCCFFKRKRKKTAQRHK
protein kinases of the Z-LYTE panel (Homo sapiens, UniProt P14616), sequence (P14616 27-1297): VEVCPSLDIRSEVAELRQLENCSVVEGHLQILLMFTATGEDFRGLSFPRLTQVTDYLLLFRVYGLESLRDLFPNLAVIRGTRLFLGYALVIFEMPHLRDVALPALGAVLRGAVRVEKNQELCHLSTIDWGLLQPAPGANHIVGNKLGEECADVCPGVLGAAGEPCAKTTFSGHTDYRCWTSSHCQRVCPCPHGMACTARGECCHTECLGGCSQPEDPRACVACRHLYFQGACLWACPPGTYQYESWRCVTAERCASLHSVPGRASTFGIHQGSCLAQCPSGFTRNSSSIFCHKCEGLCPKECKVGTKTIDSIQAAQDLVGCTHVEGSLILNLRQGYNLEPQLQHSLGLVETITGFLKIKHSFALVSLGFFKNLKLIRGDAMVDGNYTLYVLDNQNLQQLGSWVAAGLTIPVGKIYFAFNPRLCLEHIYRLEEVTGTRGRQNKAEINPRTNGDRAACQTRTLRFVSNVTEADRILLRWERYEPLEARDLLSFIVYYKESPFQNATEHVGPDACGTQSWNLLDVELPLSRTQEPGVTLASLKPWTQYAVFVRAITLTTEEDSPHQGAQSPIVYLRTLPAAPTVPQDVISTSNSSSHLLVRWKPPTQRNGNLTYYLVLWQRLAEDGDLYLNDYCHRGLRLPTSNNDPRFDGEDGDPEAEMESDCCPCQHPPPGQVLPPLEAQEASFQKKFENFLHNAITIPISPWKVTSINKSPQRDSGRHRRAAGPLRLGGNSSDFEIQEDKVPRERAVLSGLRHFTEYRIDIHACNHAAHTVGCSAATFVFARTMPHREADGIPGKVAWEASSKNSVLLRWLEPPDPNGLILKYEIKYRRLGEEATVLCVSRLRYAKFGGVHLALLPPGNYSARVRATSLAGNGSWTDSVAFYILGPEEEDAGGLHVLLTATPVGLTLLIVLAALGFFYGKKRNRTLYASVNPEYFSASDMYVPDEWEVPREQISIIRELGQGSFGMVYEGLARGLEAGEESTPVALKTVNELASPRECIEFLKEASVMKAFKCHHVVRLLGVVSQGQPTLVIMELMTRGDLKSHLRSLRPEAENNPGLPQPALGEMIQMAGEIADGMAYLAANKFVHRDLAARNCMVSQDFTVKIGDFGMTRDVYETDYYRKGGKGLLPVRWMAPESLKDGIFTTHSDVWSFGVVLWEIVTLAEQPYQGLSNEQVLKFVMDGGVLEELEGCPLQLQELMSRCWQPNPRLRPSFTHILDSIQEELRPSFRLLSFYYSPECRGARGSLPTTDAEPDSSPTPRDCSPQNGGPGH

## CCN1CCN(c2ccc(Nc3cc(Nc4cccc5c4N(C(C)=O)CC5)ccn3)cc2)CC1 [Compound 1938]
[1]; read-out: % Inhibition Point 1
  inhibition at 1 µM: 6%
[1]; read-out: % Inhibition Point 2
  inhibition at 1 µM: 7%
[1]; read-out: % Inhibition mean
  inhibition at 1 µM: 6%
[2]; read-out: % Inhibition Point 1
  inhibition at 1 µM: 28%
[2]; read-out: % Inhibition Point 2
  inhibition at 1 µM: 29%
[2]; read-out: % Inhibition mean
  inhibition at 1 µM: 29%
[3]; read-out: % Inhibition Point 1
  inhibition at 1 µM: 9%
[3]; read-out: % Inhibition Point 2
  inhibition at 1 µM: 8%
[3]; read-out: % Inhibition mean
  inhibition at 1 µM: 8%
[4]; read-out: % Inhibition Point 1
  inhibition at 1 µM: 3%
[4]; read-out: % Inhibition Point 2
  inhibition at 1 µM: 5%
[4]; read-out: % Inhibition mean
  inhibition at 1 µM: 4%
[5]; read-out: % Inhibition Point 1
  inhibition at 1 µM: -0.0637%
[5]; read-out: % Inhibition Point 2
  inhibition at 1 µM: -0.692%
[5]; read-out: % Inhibition mean
  inhibition at 1 µM: -0.378%
[6]; read-out: % Inhibition Point 1
  inhibition at 1 µM: -6%
[6]; read-out: % Inhibition Point 2
  inhibition at 1 µM: -5%
[6]; read-out: % Inhibition mean
  inhibition at 1 µM: -5.54%
[7]; read-out: % Inhibition Point 1
  inhibition at 1 µM: 7.5%
[7]; read-out: % Inhibition Point 2
  inhibition at 1 µM: 6%
[7]; read-out: % Inhibition mean
  inhibition at 1 µM: 6.66%
[8]; read-out: % Inhibition Point 1
  inhibition at 1 µM: 0.622%
[8]; read-out: % Inhibition Point 2
  inhibition at 1 µM: -0.215%
[8]; read-out: % Inhibition mean
  inhibition at 1 µM: 0.204%
